17 compounds from patent US5393786A, “Method for treating inflammation, ischemia-induced cell damage and muscular dystrophy” (priority 1993, dated 1995) can be followed below.

The subject of data set [1] is striatal cell layer of the striatum. The experiment in a line: Stroke model in rats (four-vessel occlusion), striatal damage. Type of data set: in vivo, male Wistar rats. As to conditions: scale 0-3, mean ± SE.
Description: (§1) Strokes were produced in rats by occluding the four arteries that supply blood to the brain according to the following procedure. Male Wistar rats (250-280 g; Hilltop Laboratories, Scottsdale, Pa.) were anesthetized with metofane and placed into a stereotaxic instrument. A longitudinal incisio was made on the dorsal surface of the neck. The neck muscles were reflected to expose the dorsal surface of the spinal column. The two vertebral arteries were exposed where they pass through the first cervica vertebra. Both arteries were permanently occluded by the application of electrocautery. After coagulation of the vertebral arteries, the rat was removed from the stereotaxic instrument and the surgical wound was sutured. Two longitudinal incisions were then made on the ventral surface of the neck. The two common carotid arteries were exposed and dissected free from surrounding nerves and connective tissue. Reversible atraumatic clamps, fabricated mainly from silicon rubber tubing, were placed around each carotid artery in a manner such that the vessels were not traumatize or occluded. The clamps were externalized through the ventral neck incision. A suture was also placed through the neck dorsal to the carotids, esophagus and trachea, and tied loosely behind the neck. This suture is tied tightly at the time ischemia is induced in order to restrict collateral circulation reaching the brain through the dorsal muscles of the neck. The surgical wounds were then closed. After the surgery, the rats were allowed to recover for 24 hours (free access to water, but no food during this period).
(§2) On the day of testing, test compounds were administered at various times before stroke induction. Strokes (cerebral ischemia) were induced by tightening the clamps around the carotids, thereby stopping blood flow in the carotids. Rats in which strokes were successfully produced lost the righting reflex and became unresponsive to stimuli. Collateral circulatio through the dorsal neck muscles was then restricted by tightening the previously implanted suture. […] After 30 minutes of ischemia, the carotid clamps wer released, the neck suture was loosened, and blood flow to the brain was restored. Following the period of ischemia, the rats were allowed free access to food and water. Rats were again treated with test compounds at various times after the stroke. On the third day after the stroke the animals were sacrificed and their brains were removed, frozen and sectioned through the striatum and hippocampus. Sections were mounted on glass slides and stained with hematoxylin and eosin.
(§3) Two of the areas of the brain that are most susceptible to ischemia induce damage, both in rats and humans, are the CA1 pyramidal cell layer of the hippocampus and the striatal cell layer of the striatum. In animals that remain unresponsive for the 30 minute period of ischemia, the CA1 pyramidal cell layer and the striatal cell layer are completely destroyed. These layers of cells were examined microscopically in histological sections prepared from the hippocampus and striatum. Brain damage was rated according to the following scale:
(§4) 0=no damage, completely intact cell layer
(§5) 1=mild damage, onethird of cell layer dead
(§6) 2=moderate damage, twothirds of cell layer dead
(§7) 3=severe damage, complete destruction of cell layer
(§8) Damage in 10-12 sections from each brain was assessed in order to obtain a accurate estimate of damage. An average damage score was calculated for each treatment group. Scores from treated groups were compared statistically with scores from control groups which received only the vehicle used to suspend the compounds. The level of significance was determined using the Mann WhitneyU-test.
In data set [2] the test system is hippocampal CA1 pyramidal cell layer. The experiment in a line: Stroke model in rats (four-vessel occlusion), hippocampal CA1 damage. As to conditions: for Damage Score, Hippocampus: scale 0-3, mean ± SE.
Description: as §1, §2, §3, §4, §5, §6, §7, §8
The test system of data set [3] is adjuvant-induced arthritis (uninjected hind paw). The experiment in a line: Developing Adjuvant-Induced Arthritis Test in Rats. Type of data set: in vivo, male Lewis-Wistar rats. As to conditions: po, 720 h, AUC days 16-30; for inhibition in vivo at 50 mg/kg: 50 mg/kg rat weight × 29, p.o. once daily.
The test system of data set [4] is ischemia-induced cell damage caused by middle cerebral artery occlusion. The experiment in a line: Middle Cerebral Artery Occlusion Stroke Model. Type of data set: in vivo, male spontaneously hypertensive rats. As to conditions: for toxicity of higher doses (footnote ++): doses above 10/5 mg/kg i.v. The source says:
Strokes were also produced in rats by occluding the middle cerebral artery according to the following procedure. Male spontaneously hypertensive rats were housed in groups of three to four per cage and allowed free access to food and water. The animals were anesthetized with a mixture of 2.5% halothane and air. The anesthetized rats then underwent the following surgical procedure.
A femoral artery of each rat was cannulated to monitor mean arterial pressure and a jugular cannula was inserted in order to provide a means for administering test compounds intravenously. […] The ventral neck area and the area behind each animal's right eye were shaved and washed with antiseptic solution. The right common carotid artery was dissected free of connective tissue through a midline cervical incision and the vessel permanently occluded with a silk ligature. Next, a 1 cm incision perpendicular to, and bisecting a line between the lateral canthus of the right eye and the external auditory canal, was made to expose the temporalis muscle which was retracted and partially excised. Using a dissecting microscope, the right middle cerebral artery was exposed through a 2 mm burr hole drilled 2-3 mm rostral to the fusion of the zygomatic arch with a squamosal bone. Drilling was done under a continuous drip of a 0.9% saline solution to prevent heat injury of the underlying cortex. The dura was cut and retracted to expose the middle cerebral artery.
This artery was occluded in two ways. The first method of occlusion involved permanent cauterization of the artery so that blood flow through the artery was completely eliminated. The second method of occulsion was only temporary (lasting two hours) and involved clamping the artery with microaneurism clips. Test compounds were administered at various times before, during and after occlusion. Each animal's body temperature was maintained at 37° C. during testing using a rectal thermometer connected to a heating pad.
Twenty-four hours after tandem middle cerbral carotid artery occlusion, the test animals were sacrificed and their brains removed and frozen over dry ice. Coronal sections 20 microns thick were cut at half millimeter intervals in a cryostat at -20° C. and dried on a hot plate at 60° C. The sections were then stained with cresyl violet. […] A total infarct volume was then calculated using a computer program that summed all sectional areas measured multiplied by the interval thickness. The lower the infarcted volume obtained, the lower the amount of cell damage caused by the stroke. The level of significance was obtained using Student's "t-test".

Where [5] appears, read: 100 mg/kg orally, 2% acacia, time c (30 min pre, 4 h and 24 h postischemia), control 1.4 ± 0.3.
The mark [6] stands for this setting: 100 mg/kg orally, 2% acacia, time c (30 min pre, 4 h and 24 h postischemia), control 2.5 ± 0.3.
[7] abbreviates: 25 mg/kg rat weight × 29, p.o. once daily, read-out: % Inhibition of Uninjected Paw Volume Inflammation, Days 16-30.
Where [8] appears, read: read-out: % Inhibition of Uninjected Paw Volume Inflammation, Days 16-30.
Where [9] appears, read: 25 mg/kg orally, water, time a (15 min pre, 4 h and 24 h postischemia), control 2.5 ± 0.3.
Setting [10] is: 100 mg/kg orally, 2% acacia, time c (30 min pre, 4 h and 24 h postischemia), control 2.7 ± 0.2.
Setting [11] is: 100 mg/kg orally, water, time a (15 min pre, 4 h and 24 h postischemia), control 2.7 ± 0.2.
[12] abbreviates: 50 mg/kg orally, 2% acacia, time c (30 min pre, 4 h and 24 h postischemia), control 2.71 ± 0.22.
The mark [13] stands for this setting: 50 mg/kg orally, 2% acacia, time c (30 min pre, 4 h and 24 h postischemia), control 2.73 ± 0.22.
Where [14] appears, read: 100 mg/kg orally, 2% acacia, time a (15 min pre, 4 h and 24 h postischemia), control 2.4 ± 0.4.
Setting [15] is: 100 mg/kg orally, 2% acacia, time a (15 min pre, 4 h and 24 h postischemia), control 2.9 ± 0.1.

Structures can show the parent of a compound that is named as a salt. Where two headings read alike, the source gives them in different places.

Consider `CC(C)(C)c1cc(CN2CCCC2)cc(C(C)(C)C)c1O.Cl` [4-(1-pyrrolidinomethyl)-2,6-bis(1,1-dimethylethyl)phenol hydrochloride], for which the “Damage Score, Striatum” value in data set [1] (setting [5]) is listed as 1.5 ± 0.4. In addition, the “Damage Score, Hippocampus” value in data set [2] (setting [6]) came to 1.2 ± 0.5.
Regarding `CC(C)(C)c1cc(CN2CCOCC2)cc(C(C)(C)C)c1O` [4-(4-morpholinylmethyl)-2,6-bis(1,1-dimethylethyl)phenol], in data set [3] (setting [7]), the inhibition in vivo at 25 mg/kg was determined as 40.6%. Besides, in data set [3] (setting [8]), the inhibition in vivo at 50 mg/kg came to 71.1%.
As to `CCNC(C)c1cc(C(C)(C)C)c(O)c(C(C)(C)C)c1.Cl` (stereo not drawn) [4-[1-(ethylamino)ethyl]-2,6-bis(1,1-dimethylethyl)phenol hydrochloride], the “Damage Score, Striatum” value in data set [1] (50 mg/kg orally, 2% acacia, time c (30 min pre, 4 h and 24 h postischemia), control 1.9 ± 0.4, only 7 rats because of toxicity) is reported as 1.5 ± 0.5. In addition, the “toxicity of higher doses (footnote ++)” value in data set [4] (temporary occlusion, 10% DMSO in saline) was “higher doses were toxic in this model”. For the same compound, in data set [4] (temporary occlusion, 10/5 mg/kg i.v. (per hour), 10% DMSO in saline, time d, control 106 ± 15), the “Infarct Volume” value is reported as 92 ± 10 (mm)^3. Also, the “toxicity in stroke model (footnote ****)” value in data set [2] (50 mg/kg orally, 2% acacia, time c, data on only 7 rats) is “data obtained on only 7 rats because of toxicity problems”. Moreover, the “Damage Score, Hippocampus” value in data set [2] (50 mg/kg orally, 2% acacia, time c (30 min pre, 4 h and 24 h postischemia), control 2.6 ± 0.3, only 7 rats because of toxicity) was 0.9 ± 0.4.
For `CN(C)CCc1cc(C(C)(C)C)c(O)c(C(C)(C)C)c1.Cl` [4-[2-(dimethylamino)ethyl]-2,6-bis(1,1-dimethylethyl)phenol hydrochloride], the “Damage Score, Striatum” value in data set [1] (setting [9]) was determined as 0.9 ± 0.3; in data set [1] (50 mg/kg orally, water, time a (15 min pre, 4 h and 24 h postischemia), control 2.8 ± 0.2), 0.3 ± 0.2; in data set [1] (setting [10]), 0.0 ± 0.0; in data set [1] (setting [11]), 0.1 ± 0.0. For the same compound, the “toxicity of higher doses (footnote ++)” value in data set [4] (permanent occlusion, saline) was “higher doses were toxic in this model”. Besides, the “Infarct Volume” value in data set [4] (permanent occlusion, 10/5 mg/kg i.v. (per hour), saline, time c, control 154 ± 11) is on record as 161 ± 17 (mm)^3; in data set [4] (temporary occlusion, 20/5 mg/kg i.v. (per hour), saline, time d, control 84.7 ± 6.4), 77.6 ± 5.5 (mm)^3. Besides, the “Damage Score, Hippocampus” value is listed as 1.6 ± 0.3 in data set [2] (setting [9]); 0.8 ± 0.4 in data set [2] (50 mg/kg orally, water, time a (15 min pre, 4 h and 24 h postischemia), control 3.0 ± 0.0); 0.2 ± 0.2 in data set [2] (setting [10]); 0.2 ± 0.2 in data set [2] (setting [11]).
For the compound `CN(C)CCc1cc(C(C)(C)C)c(O)c(C(C)(C)C)c1` [4-[2-(dimethylamino)ethyl]-2,6-bis(1,1-dimethylethyl)phenol], in data set [1] (setting [10]), the “Damage Score, Striatum” value came out at 0.0 ± 0.0. Further, the “Damage Score, Hippocampus” value in data set [2] (setting [10]) amounted to 0.0 ± 0.0.
Turning to `CNCCc1ccc(O)c(C(C)(C)C)c1.Cl` [4-[2-(methylamino)ethyl]-2-(1,1-dimethylethyl)phenol hydrochloride], in data set [1] (setting [12]), the “Damage Score, Striatum” value turned out to be 1.62 ± 0.35. In addition, the inhibition in vivo at 25 mg/kg in data set [3] (Rattus norvegicus, read-out: % Inhibition of Uninjected Paw Volume Inflammation, Days 16-30, 25 mg/kg rat weight × 29, p.o. once daily) came to 76.6%. In addition, in data set [2] (setting [13]), the “Damage Score, Hippocampus” value is reported as 2.78 ± 0.12.
Turning to `CCN(C)Cc1cc(C(C)(C)C)c(O)c(C(C)(C)C)c1` [4-[(N-ethyl-N-methylamino)methyl]-2,6-bis(1,1-dimethylethyl)phenol methanesulfonate], in data set [1] (setting [14]), the “Damage Score, Striatum” value amounted to 1.1 ± 0.4. Besides, the inhibition in vivo at 25 mg/kg in data set [3] (setting [7]) stood at 26%. In addition, in data set [2] (setting [15]), the “Damage Score, Hippocampus” value is 1.1 ± 0.5.
In the case of `CCN(CC)Cc1cc(C(C)(C)C)c(O)c(C(C)(C)C)c1.Cl` [4-[(diethylamino)methyl]-2,6-bis(1,1-dimethylethyl)phenol hydrochloride], the “Damage Score, Striatum” value in data set [1] (setting [5]) was 1.7 ± 0.6. Further, the “Damage Score, Hippocampus” value in data set [2] (setting [6]) was determined as 2.0 ± 0.5.
With `CN(C)Cc1cc(C(C)(C)C)c(O)c(C(C)(C)C)c1` [4-[(dimethylamino)methyl]-2,6-bis(1,1-dimethylethyl)phenol methanesulfonate], the “Damage Score, Striatum” value in data set [1] (setting [14]) is 0.8 ± 0.3. For the same compound, the “Infarct Volume” value in data set [4] (temporary occlusion, 30/5 mg/kg i.v. (per hour), saline, time d (15 min before clamp removal, then 24 h), control 97 ± 10) is 69 ± 9 (mm)^3. Besides, the “Damage Score, Hippocampus” value in data set [2] (setting [15]) is reported as 0.9 ± 0.3.
`CCNCc1cc(C(C)(C)C)c(O)c(C(C)(C)C)c1` [4-[(ethylamino)methyl]-2,6-bis(1,1-dimethylethyl)phenol nitrate]: in data set [1] (50 mg/kg orally, 2% acacia, time c (30 min pre, 4 h and 24 h postischemia), control 2.30 ± 0.32), the “Damage Score, Striatum” value stood at 1.26 ± 0.40. The “Damage Score, Hippocampus” value in data set [2] (50 mg/kg orally, 2% acacia, time c (30 min pre, 4 h and 24 h postischemia), control 2.90 ± 0.04) is listed as 1.81 ± 0.36.
For the compound `CC(C)NCc1cc(C(C)(C)C)c(O)c(C(C)(C)C)c1` [4-[(isopropylamino)methyl]-2,6-bis(1,1-dimethylethyl)-phenol hydrochloride], in data set [3] (setting [7]), the inhibition in vivo at 25 mg/kg was found to be 4.9%.
`CCCNCc1cc(C(C)(C)C)c(O)c(C(C)(C)C)c1.Cl` [4-[(n-propylamino)methyl]-2,6-bis(1,1-dimethylethyl)phenol hydrochloride]: the “Damage Score, Striatum” value in data set [1] (50 mg/kg orally, distilled water, time c (30 min pre, 4 h and 24 h postischemia), control 2.53 ± 0.22) is 1.05 ± 0.33. Besides, in data set [2] (50 mg/kg orally, distilled water, time c (30 min pre, 4 h and 24 h postischemia), control 2.96 ± 0.03), the “Damage Score, Hippocampus” value is 1.48 ± 0.34.
With `CC(C)(C)NCc1cc(C(C)(C)C)c(O)c(C(C)(C)C)c1.Cl` [4-{[(1,1-dimethylethyl)amino]methyl}-2,6-bis(1,1dimethylethyl)phenol hydrochloride], the “Damage Score, Striatum” value in data set [1] (setting [12]) is on record as 0.75 ± 0.35. The inhibition in vivo at 25 mg/kg in data set [3] (setting [7]) worked out at 3.9%. For the same compound, in data set [2] (setting [13]), the “Damage Score, Hippocampus” value turned out to be 1.72 ± 0.43.
For `CN(Cc1cc(C(C)(C)C)c(O)c(C(C)(C)C)c1)Cc1cc(C(C)(C)C)c(O)c(C(C)(C)C)c1.Cl` [4-{[N-methyl-N-(4-hydroxy-3,5-bis(1,1-dimethylethyl)benzyl)amino]methyl}-2,6-bis(1,1-dimethylethyl)phenol hydrochloride], the “Damage Score, Striatum” value in data set [1] (setting [10]) is recorded as 1.8 ± 0.4. Further, the “Damage Score, Hippocampus” value in data set [2] (setting [10]) is 2.9 ± 0.1.
`CN(Cc1cc(C(C)(C)C)c(O)c(C(C)(C)C)c1)Cc1cc(C(C)(C)C)c(O)c(C(C)(C)C)c1` [4-{[N-methyl-N-(4-hydroxy-3,5-bis(1,1-dimethylethyl)benzyl)amino]methyl}-2,6-bis(1,1-dimethylethyl)phenol]: the “Damage Score, Striatum” value in data set [1] (setting [10]) stood at 2.4 ± 0.4. Moreover, the inhibition in vivo at 50 mg/kg in data set [3] (setting [8]) was 77%. For the same compound, the “Damage Score, Hippocampus” value in data set [2] (setting [10]) is recorded as 2.9 ± 0.2.
Regarding `CN(C)C(=O)c1cc(C(C)(C)C)c(O)c(C(C)(C)C)c1` [N,N-dimethyl-3,5-bis(1,1-dimethylethyl)-4-hydroxybenzamide], the inhibition in vivo at 50 mg/kg in data set [3] (setting [8]) was 64.4%.
For the compound `CC(C)(C)c1cc(C(=O)Nc2ccccc2Cl)cc(C(C)(C)C)c1O` [N-2-chlorophenyl-3,5-bis(1,1-dimethylethyl)-4-hydroxy-benzamide], the inhibition in vivo at 50 mg/kg in data set [3] (setting [8]) turned out to be 8.7%.
